Values quoted from earlier work, collected in patent US20140045806A1 (priority 2012, published 2014).

Test system: vaginal nerve fibers
Conditions: Pessina, Hoyt et al. 2006; cited from earlier work

SMILES	Number and size of the nerve terminals in the lamina propria
CC(=O)[C@H]1CC[C@H]2[C@@H]3CCC4=CC(=O)CC[C@]4(C)[C@H]3CC[C@]12C [progesterone]	no effect
C[C@]12CC[C@H]3[C@@H](CCC4=CC(=O)CC[C@@]43C)[C@@H]1CC[C@@H]2O [testosterone]	increases the number and size of the nerve terminals
